Test results: publication PMC5514153, “Targeting PTPRZ inhibits stem cell-like properties and tumorigenicity in glioblastoma cells” (Scientific Reports, 2017)

Assays:
[1] = tested on: PTPRZ and PTPRG V-to-F substitution mutants; assay: Sensitivity of V-to-F mutants to competitive inhibitors; assay type: biochemical, human; details: SCB4380 10 µM, vanadate 200 µM; on average
Protocol: For determination of IC50 values, Lineweaver-Burk plot, and inhibitor sensitivity assays, recombinant PTP proteins were preincubated with a dilution series of the compound in assay buffer (100 mM acetate, 50 mM Tris, and 50 mM Bis-Tris, pH 6.5 containing 100 μg/ml BSA, 5 mM DTT, and 0.01% Brij-35) for 1 h, and the enzyme-inhibitor mixture was added to an equal volume of 40 μM DiFMUP (6,8-difluoro-4-methylumbiliferyl phosphate, #D6567, Thermo Fisher Scientific) solution to initiate the reaction. The hydrolysis of DiFMUP was continuously monitored as an increase in fluorescence at 455 nm (excitation at 358 nm) for ~100 s using a spectrofluorometer (FI-4500, Hitachi) at room temperature. The slope of the fluorescence signal was defined as catalytic activity. IC50 values were calculated by the conventional linear interpolation method. We examined preincubation effect, reversibility, and time dependence of PTP inhibition by NAZ2329 as described in the figure legends.
Le ge nds to Supple me ntary Figure s
Supplementary Figure S1. Aberrant expressions of core transcription factors in Ptprz-knockdown glioblastoma cells. (A) Western using antibodies against SOX2, OLIG2, POU3F2, and SALL2. […] SALL2 proteins were not detected in C6 or U251 cells. […]
positions corresponding to Val-1911 of PTPRZ1 are colored in blue and red, respectively. […] Data were analyzed as […]

[2] = not told; cited from earlier work
C6 xenograft = assay: C6 subcutaneous xenograft nude mouse model; assay type: in vivo; details: nude mice, i.p. twice per week; NAZ2329 45 µmol (22.5 mg)/kg, TMZ 50 mg/kg; vehicle 17 days
Protocol: Figure 10 Antitumor effects of NAZ2329 on the C6 mouse xenograft model. (A) Nude mice were subcutaneously implanted with C6 cells (5 × 10^6 cells), and tumor size was monitored until the criteria were met (>150 mm^3). At this time, mice were randomly divided into 4 treatment groups. DMSO as the vehicle control (n = 7), NAZ2329 (45 µmol (22.5 mg)/kg body weight, n = 9), temozolomide (TMZ, 50 mg/kg, n = 9), and the combination of NAZ2329 (45 µmol/kg) with TMZ (50 mg/kg) (n = 9) were administered intraperitoneally twice per week until the humane endpoint (>3,000 mm^3 tumor size or 40 days after the treatment). Tumor growth in each animal and the number of days required to reach a tumor volume of 3,000 mm^3 are shown in the graph. Five mice were sacrificed due to tumor necrosis (shown by gray symbols in the graph), and two mice unexpectedly died suddenly during the observation period (black symbols in the graph).
Parental or Ptprz-knockdown C6 cells (5 × 10^6 cells) suspended in a volume of 100 µl were subcutaneously injected into the left hind limbs of BALB/c-nu/nu mice (females, 4 weeks old mice were purchased from Japanese Charles River Co. Ltd.). Tumor growth was measured with calipers and calculated by the formula: volume = length × width × width × 0.5, as previously described. The drug treatment initiated when the tumor size reached 150 mm^3. […]

[3] = target: T1, human PTPRZ1 (whole intracellular region, D1+D2) (Homo sapiens, UniProt P23471); assay: In vitro PTPase assay (DiFMUP), PTPRZ1 whole intracellular region; assay type: biochemical
T1 construct: Recombinant proteins corresponding to the entire intracellular regions (ICRs) of PTPRZ1, PTPRA, and PTPRM; made in house; host or cells: baculovirus-silkworm expression system
T1 sequence (P23471 1663-2315 limits assumed): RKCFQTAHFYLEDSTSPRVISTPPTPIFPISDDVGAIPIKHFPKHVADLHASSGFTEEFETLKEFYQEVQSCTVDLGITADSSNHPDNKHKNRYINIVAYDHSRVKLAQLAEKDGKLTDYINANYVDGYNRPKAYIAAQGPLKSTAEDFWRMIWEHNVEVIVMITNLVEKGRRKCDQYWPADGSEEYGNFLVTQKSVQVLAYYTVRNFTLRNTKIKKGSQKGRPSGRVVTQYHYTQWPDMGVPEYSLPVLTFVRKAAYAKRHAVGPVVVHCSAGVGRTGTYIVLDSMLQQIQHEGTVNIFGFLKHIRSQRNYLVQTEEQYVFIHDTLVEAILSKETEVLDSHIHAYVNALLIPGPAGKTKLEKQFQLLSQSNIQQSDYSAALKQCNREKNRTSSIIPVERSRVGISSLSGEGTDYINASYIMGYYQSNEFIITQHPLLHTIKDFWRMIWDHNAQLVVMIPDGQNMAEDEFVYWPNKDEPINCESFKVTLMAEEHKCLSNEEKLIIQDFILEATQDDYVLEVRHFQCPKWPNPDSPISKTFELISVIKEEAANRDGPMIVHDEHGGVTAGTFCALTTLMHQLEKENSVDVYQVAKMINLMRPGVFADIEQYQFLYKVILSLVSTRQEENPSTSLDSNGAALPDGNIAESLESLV
Protocol: Figure 4 NAZ2329, an allosteric inhibitor of R5 RPTP subfamily members. (A) Structure of NAZ2329. (B) Effect of preincubation of NAZ2329 on its inhibitory activity against PTPRZ. Recombinant human PTPRZ1 enzyme (the whole intracellular region) was premixed with NAZ2329 for the indicated times and followed by addition of a fluorogenic DiFMUP (non-specific PTP substrate, 6,8-difluoro-4-methylumbiliferyl phosphate) to measure PTP inhibitory activity. (C) Time dependence. The PTPRZ1 enzyme was added to the inhibitor–substrate mixture, and the inhibitory activity was determined at each time point relative to the vehicle control. (D) Reversibility of inhibition. PTPRZ1 enzymes were preincubated with NAZ2329 at the indicated concentrations for 30 min. The mixture was then 20-fold diluted, and recovered PTP activity was expressed as the relative activity compared with the vehicle-treated enzyme. (E) Lineweaver-Burk plot analysis. PTPRZ1 enzymes were preincubated with NAZ2329 for 60 min, and the PTP activity was measured using DiFMUP. (F) Concentration-inhibition curves of NAZ2329 for representative PTP members, including human PTPRZ and PTPRG (another R5 RPTP subfamily member), human PTPRS (R2A subfamily), human PTPRM (R2B subfamily), mouse PTPRB (R3 subfamily), human PTPRA (R4 subfamily), human PTPN1 (non-transmembrane PTP, NT1 subfamily), and human PTPN6 (NT2 subfamily), were generated. Assays were performed using DiFMUP. IC50 values obtained are shown in the inset. Data represent the averages of two or three separate experiments. TEXT PRINTED IN THE PICTURE: (F) NAZ2329: IC50 (μM): hPTPRZ1 7.5; IC50 (μM): hPTPRG 4.8; IC50 (μM): hPTPRA 35.7; IC50 (μM): hPTPRM 56.7; IC50 (μM): hPTPRS 23.7; IC50 (μM): mPTPRB 35.4; IC50 (μM): hPTPN6 15.2; IC50 (μM): hPTPN1 14.5
Recombinant proteins corresponding to the entire intracellular regions (ICRs) of PTPRZ1, PTPRA, and PTPRM were expressed using a baculovirus-silkworm expression system, and purified as described. The ICRs of PTPRG, PTPRS, and PTPRB and the catalytic domains of PTPN1 and PTPN6 were expressed as glutathione-S-transferase (GST) fusion proteins from each pGEX plasmid in Escherichia coli strain BL21 (ref. [6]). GST fusion proteins were purified by glutathione affinity chromatography as described. Chondroitinase ABC (chABC) was purchased from Sigma-Aldrich (catalog #C3667). Anti-PTPRZ-S, rabbit polyclonal antibodies against the extracellular region of PTPRZ was described previously (ref. [44]). The following are the specificities and sources of the commercially available antibodies used in the present study: Anti-RPTPβ (a monoclonal antibody against the intracellular domain of PTPRZ1 receptors, #610179, BD Biosciences), anti-SOX2 (#ab97959, Abcam), anti-POU3F2 (#12137, Cell Signaling), anti-OLIG2 (#AB9610, Millipore), anti-SALL2 (#12679–1-AP, Proteintech Group), anti-GAPDH (#ab9482, Abcam) anti-phosphotyrosine (PY20; #ab16389, Abcam), and anti-pY118-paxillin (#2541, Cell Signaling), mouse anti-paxillin antibody (#610569, BD Bioscience), anti-MBP (#sc-13914, Santa Cruz Biotechnology), and anti-NG2 proteoglycan (#AB5320, Millipore). […]

hPTPRZ1 (D1) = target: T2, hPTPRZ1 (D1) (Homo sapiens, UniProt P23471); assay: In vitro PTPase assay (DiFMUP), PTPRZ1 D1 domain; assay type: biochemical; details: first PTP domain fragment
T2 construct: human PTPRZ1-D1 (amino acid residues, 1,698-2,000)
T2 sequence (P23471 1698-2000 limits assumed): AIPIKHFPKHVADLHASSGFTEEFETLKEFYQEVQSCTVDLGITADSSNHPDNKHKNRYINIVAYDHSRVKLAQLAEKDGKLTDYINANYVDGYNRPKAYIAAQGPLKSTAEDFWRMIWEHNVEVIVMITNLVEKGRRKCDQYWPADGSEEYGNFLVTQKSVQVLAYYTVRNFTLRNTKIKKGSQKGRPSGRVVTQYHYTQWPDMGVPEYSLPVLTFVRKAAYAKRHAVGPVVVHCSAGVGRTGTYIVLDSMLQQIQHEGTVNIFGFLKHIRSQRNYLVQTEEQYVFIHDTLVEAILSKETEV

SMILES | change in sensitivity on V-to-F substitution in PTPRZ and PTPRG [1] | cell permeability [2] | median day for the tumor size to reach 3,000 mm^3 (C6 xenograft) | inhibitory effects on PTPRZ activity ([3]; Supplementary Fig. S2) | IC50 hPTPRZ1 (D1+D2) ([3]; whole intracellular region, DiFMUP, 60-min preincubation) | IC50 hPTPRZ1 (D1) (hPTPRZ1 (D1))
O=S(=O)([O-])c1ccc2c(N=Nc3ccc(S(=O)(=O)[O-])c4ccccc34)c(O)c(S(=O)(=O)[O-])cc2c1.[Na+].[Na+].[Na+] [SCB4380] | ~ 5% | cell impermeable |  |  |  | 
Cn1nnc2c(C(N)=O)ncn2c1=O [temozolomide, reference compound] |  |  | 25 days | no significant inhibitory effects | ns | ns
[O]=[V]([O-])([O-])[O-] [vanadate] | ~ 5% |  |  |  |  | 
